Assay results published in patent publication US20250387494A1, “Prodrugs Based On Tumor Targeting Near Infrared Dye-Drug Conjugates (DDC)” (Lahjavida, Inc., priority 2022, published 2025).

How the values were obtained:
[1] = system: SW620 tumor; assay: Tumor growth inhibition, intravenous tail injection; type: in vivo, mice; parameters: key to Tumor size: tumor size in mm^3; conditions: for Tumor size: i.v. 10 mg/kg, second dose 15 mg/kg on Day 11; for Tumor increase rate: i.v.; for tumor growth rate: intravenous
Procedure: (§1) Thirty-nine (39) female athymic nude mice were injected subcutaneously with 10×10^6 SW620 cells in 0.1 ml PBS with 20% Matrigel on the right flank. When the tumor size reaches within the range of approximately ˜70-200 mm^3, mice were sorted as day 0. Thirty (30) mice were randomized into five (5) groups of six (6) mice per group and dosed singly (I.V.) with the test articles or the vehicle control (This day is Day 1: treatment starts). Administrations of Vehicle (saline), NIR dye (“Dye3” in Table 2), Irinotecan, NIR dye-linker-SN38 (XV), and NIR dye-linker Doxo (XVI) are described in Table 6. Before treatment starts/randomization of mice, the 6 mice whose tumors were getting within the range first were used to determine the maximum tolerated dose (MTD) or dose level of two articles NIR day-linker-SN38 (XV), and NIR dye-linker Doxo (XVI), 3 mice for each.
(§2) Tumor size will be assessed daily, and once noticed palpably, the tumor measurements/body weight started daily up to the randomization day, and before randomization, to get 6 mice as mentioned above for the MTD study, and NIR imaging. After randomization, tumor size and body weight were assessed three times a week (M, W, F) for the duration of the study. Monitoring: a), Record BW on M, W, and F; b). Record signs of distress daily; c). Record tumor size M, W, F; d). In vivo NIR imaging (Group 1, 2, 4, and 5): Ex: 780 nm, Em: 810 nm, on day 1:0.5 hr, 2 hr, 4 hr, 8 hr post day 1 dosing, then 24 hr (day 2), then in vivo imaging, every M, W, and F, until the study ended on day 35.
(§3) The mice were injected with the said compounds either via intravenous tail injection or with intratumor injection for. Two studies were carried out: one was the compounds uptake study by the tumor as judged by the NIR imaging of both the whole mice body (FIGS. 10A, 10B, 11A, and 11B) and of the mice organs (FIGS. 12A, 12B, 13A, 13B, 14A and 14B). The injection method for these study was via intravenous tail injection. The second was the efficacy evaluation of these compounds as judged by their tumor growth inhibition, the injection method for these study was via both intravenous tail injection and intratumor injection.

[2] = system: SW620 tumor; assay: In vivo NIR fluorescent imaging of whole body and organs; conditions: for tumor accumulation, whole body NIR imaging: intravenous tail injection, 11 days after second dosing at 15 mg/kg; for tumor accumulation, whole body NIR imaging / NIR fluorescent signal in tumor (organ imaging) / NIR signal (organ imaging): 10 s exposure
Procedure: as §1, §2
Mice were euthanized on day 35 or mice will be sacrificed when tumor size was more than 2000 mm^3. On termination day, NIR imaging of various organs of 3 mice (if the remaining mice >3) from each group 1, 2, 4 and 5. For each mouse: the tumor, heart, liver, spleen, lungs, kidneys, and brain are imaged at the same time.
as §3

[3] = system: SW620 tumor; assay: Tumor growth inhibition, intratumor injection; type: in vivo, mice; conditions: for Tumor increase rate: intratumor 15 mg/kg; for Tumor size / tumor growth rate: intratumor injection 15 mg/kg
Procedure: as §1, §2, §3

[4] = system: 2D lung cancer cell line (A549); assay: Compound uptake study by NIR mean intensity; type: cell-based; conditions: 5 μM, compared with control dyes Dye 1 and Dye 2, all time points
Procedure: The tumor cells were seeded in a chamber and incubated for 24 h at 37° C. under 5% CO2. After removal of medium, cells were treated with the test materials at 5 μM concentration. When reaching the time points, cells were washed with PBS three times, then fluorescent images were taken under a fluorescent microscope.
(§4) The tumor-targeting ability and therapeutic efficacy of a four additional DDC prodrugs together with the controls of two corresponding NIR dyes, as well as two chemotherapeutic drugs were explored (Table 6) in 2D lung cancer cell line (A549) studies.
(§5) The cell lines were dosed with 5 μM of said compounds. Two studies were carried out: one was the compounds uptake study by the tumor cell line as judged by both the NIR intensity mean (FIG. 6) and by nuclei counts (FIG. 7) per well over time.

[5] = system: 2D lung cancer cell line (A549); assay: Compound uptake/toxicity study by nuclei counts; type: cell-based; conditions: 5 μM, over all the time points
Procedure: Cell viability assay was measured using Cell Titer-Glo luminescent cell ability kit via two parameters: Hoechst nuclei counts via imaging, and 2D Celltiter-glo measuring ATP content from live cells. IC50 values were calculated with a 4-variable curve analysis.
as §4, §5

[6] = Day 4 vs Day 1 (cell stands under Day 1)
[7] = Day 6 vs Day 4 (cell stands under Day 4)
[8] = Day 8 vs Day 6 (cell stands under Day 6)
[9] = Day 11 vs Day 8 (cell stands under Day 8)
[10] = Day 13 vs Day 11 (cell stands under Day 11)
[11] = Day 15 vs Day 13 (cell stands under Day 13)
[12] = Day 18 vs Day 15 (cell stands under Day 15)
[13] = Day 20 vs Day 18 (cell stands under Day 18)

## CCCCN1/C(=C/C=C2\CCCC(/C=C/C3=[N+](CCCCS(=O)(=O)[O-])c4ccccc4C3(C)C)=C2SCCC(=O)NCCC(=O)N2Cc3ccccc3-c3nnn(CCOCCOCCOCCOCCOCCOCCOCCOCCNC(=O)COCC(=O)N[C@H](C(=O)N[C@@H](CCCNC(N)=O)C(=O)Nc4ccc(COC(=O)Oc5ccc6nc7c(c(CC)c6c5)Cn5c-7cc6c(c5=O)COC(=O)[C@]6(O)CC)cc4)C(C)C)c3-c3ccccc32)C(C)(C)c2ccccc21 [Compound XV, Dye1-PEG8-Val-Cit-PABA-SN-38]
[1]; Day 1
  Tumor size: 163.7
[1]; Day 4
  Tumor size: 235.4
[1]; Day 6
  Tumor size: 364.9
[1]; Day 8
  Tumor size: 794.5
[1]; Day 11
  Tumor size: 988.8
[1]; Day 13
  Tumor size: 11114.9
[1]; Day 15
  Tumor size: 1193.3
[1]; Day 18
  Tumor size: 1239.1
[1]; Day 20
  Tumor size: 1342.1
[1]; [6]
  Tumor increase rate: 44%
[1]; [7]
  Tumor increase rate: 55%
[1]; [8]
  Tumor increase rate: 118%
[1]; [9]
  Tumor increase rate: 25%
[1]; [10]
  Tumor increase rate: 12.7%
[1]; [11]
  Tumor increase rate: 7%
[1]; [12]
  Tumor increase rate: 3.8%
[1]; [13]
  Tumor increase rate: 8.3%
[1]; after the second dose (15 mg/kg, Day 11), low
  tumor growth rate: 4%
[1]; before the second dose
  tumor growth rate: 63%
[2]
  tumor accumulation, whole body NIR imaging: accumulate selectively in the tumor sites
[2]; second dose 15 mg/kg, 24 hr after intravenous tail injection, auto exposure
  organ NIR fluorescent signal: the tumor showed the strongest NIR fluorescent signal among all the organs
[3]; [6]
  Tumor increase rate: 44%
[3]; [7]
  Tumor increase rate: 55%
[3]; [8]
  Tumor increase rate: 118%
[3]; [9]
  Tumor increase rate: 25%
[3]; [10]
  Tumor increase rate: 12.7%
[3]; [11]
  Tumor increase rate: 7%
[3]; [12]
  Tumor increase rate: 3.8%
[3]; [13]
  Tumor increase rate: 8.3%
[3]; Day 1
  Tumor size: 163.7 mm^3
[3]; Day 4
  Tumor size: 235.4 mm^3
[3]; Day 6
  Tumor size: 364.9 mm^3
[3]; Day 8
  Tumor size: 794.5 mm^3
[3]; Day 11
  Tumor size: 988.8 mm^3
[3]; Day 13
  Tumor size: 11114.9 mm^3
[3]; Day 15
  Tumor size: 1193.3 mm^3
[3]; Day 18
  Tumor size: 1239.1 mm^3
[3]; Day 20
  Tumor size: 1342.1 mm^3
[3]; as low as
  tumor growth rate: 1%
[3]; initial
  tumor growth rate: 63%
[4]
  uptake by NIR Mean Intensity: taken up well

## CCCCN1/C(=C/C=C2\CCCC(/C=C/C3=[N+](CCCCS(=O)(=O)[O-])c4ccccc4C3(C)C)=C2SCCC(=O)NCCC(=O)N2Cc3ccccc3-c3nnn(CCOCCOCCOCCOCCOCCOCCOCCOCCNC(=O)COCC(=O)N[C@H](C(=O)N[C@@H](CCCNC(N)=O)C(=O)Nc4ccc(COC(=O)N[C@@H]5CC(O[C@@H]6C[C@@](O)(C(=O)CO)Cc7c(O)c8c(c(O)c76)C(=O)c6c(OC)cccc6C8=O)O[C@H](C)[C@H]5O)cc4)C(C)C)c3-c3ccccc32)C(C)(C)c2ccccc21 (stereo partly drawn) [Compound XVI, Dye1-PEG8-Val-Cit-PABA-Doxorubicin]
[2]; first dose 10 mg/kg, day 17 after intravenous tail injection
  NIR fluorescent signal in tumor (organ imaging): strong NIR fluorescent signals
[2]
  tumor accumulation, whole body NIR imaging: accumulate selectively in the tumor sites
[2]; second dose 15 mg/kg, day 7 after intravenous tail injection, versus first dose day 17
  NIR fluorescent signal in tumor (organ imaging): more intense
[3]; Day 3 vs Day 1 (cell stands under Day 1)
  Tumor increase rate: 63%
[3]; Day 5 vs Day 3 (cell stands under Day 3)
  Tumor increase rate: 1.1%
[3]; Day 8 vs Day 5 (cell stands under Day 5)
  Tumor increase rate: 2.4%
[3]; Day 10 vs Day 8 (cell stands under Day 8)
  Tumor increase rate: 5.5%
[3]; Day 1 (Table 10 schedule)
  Tumor size: 855.4 mm^3
[3]; Day 3
  Tumor size: 1393.5 mm^3
[3]; Day 5
  Tumor size: 1409 mm^3
[3]; Day 8 (Table 10 schedule)
  Tumor size: 1443 mm^3
[3]; Day 10
  Tumor size: 1523.7 mm^3
[3]; as low as
  tumor growth rate: 0.4%
[3]; initial
  tumor growth rate: 24%
[4]
  uptake by NIR Mean Intensity: taken up well

## CCCCN1/C(=C/C=C2\CCCC(/C=C/C3=[N+](CCCCS(=O)(=O)[O-])c4ccccc4C3(C)C)=C2SCCC(=O)O)C(C)(C)c2ccccc21 [Dye 1]
[2]; first dose 4.37 mg/kg, day 17 after intravenous tail injection
  NIR signal (organ imaging): no NIR signals
[2]; second dose 4.37 mg/kg, day 7 after intravenous tail injection
  NIR signal (organ imaging): strong NIR signals
[5]
  toxicity by Nuclei Counts: not toxic

## COC(=O)CCSC1=C(/C=C/C2=[N+](CCCCS(=O)(=O)[O-])c3ccccc3C2(C)C)CCC/C1=C\C=C1\N(CCCCCC(=O)O)c2ccccc2C1(C)C [Dye 2]
[5]
  toxicity by Nuclei Counts: not toxic
